PMC4979012, “Structural basis for cytokinin production by LOG from Corynebacterium glutamicum” (Scientific Reports, 2016)

Tests used:
CgLOG (Cg2612) [1] = target: T1, CgLOG (Cg2612) (Corynebacterium glutamicum, UniProt Q8NN34); test: phosphoribohydrolase assay, TLC with UV detection of adenine; assay type: biochemical; details: 20 mM AMP, 36 mM Tris-HCl pH 8.0, 30 °C, 23 μM enzyme
T1 construct: gene Cgl2379; full-length, C-terminal 6xHis (pET30a), E. coli BL21(DE3); dimer; residues 2-195 seen in crystal; active site at dimer interface
T1 sequence (Q8NN34 1-195): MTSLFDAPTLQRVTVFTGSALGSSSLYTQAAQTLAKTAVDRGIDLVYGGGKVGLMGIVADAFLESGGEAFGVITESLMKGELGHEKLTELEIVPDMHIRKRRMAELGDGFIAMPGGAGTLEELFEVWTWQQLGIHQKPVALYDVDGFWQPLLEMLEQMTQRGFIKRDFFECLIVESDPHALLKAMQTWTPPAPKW

CgLOG (Cg2612) [2] = target: T2, CgLOG (Cg2612) (Corynebacterium glutamicum, UniProt Q8NN34, S19A); test: as above; assay type: biochemical; details: 20 mM AMP, 36 mM Tris-HCl pH 8.0, 30 °C, 23 μM enzyme
T2 construct: gene Cgl2379; full-length, C-terminal 6xHis (pET30a), E. coli BL21(DE3); dimer; residues 2-195 seen in crystal; active site at dimer interface
T2 sequence (Q8NN34 entry or part of it S19A): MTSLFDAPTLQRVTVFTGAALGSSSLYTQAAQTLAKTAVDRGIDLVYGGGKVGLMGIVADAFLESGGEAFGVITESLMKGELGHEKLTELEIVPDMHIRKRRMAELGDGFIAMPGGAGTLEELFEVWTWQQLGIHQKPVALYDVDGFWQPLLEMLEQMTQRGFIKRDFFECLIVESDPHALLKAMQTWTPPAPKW

[3] = target: LOG from Corynebacterium glutamicum ATCC 13032 (gene product of Cg2612) (Corynebacterium glutamicum ATCC 13032); test: SEC; analytical, Superdex 200 10/300, 150 mM NaCl, 300 μL of 3 mg/ml protein; molecular weight from a calibration curve of standards
[4] = target: LOG from Corynebacterium glutamicum ATCC 13032 (gene product of Cg2612) (Corynebacterium glutamicum ATCC 13032); test: SAXS; solution SAXS at 4 °C, CgLOG 0.5 ~ 4.5 mg/ml; molecular mass by the QR method

| stoichiometry N [3] | stoichiometry N [4] | Compound | phosphoribohydrolase assay, TLC with UV detection of adenine (CgLOG (Cg2612) [1]) | phosphoribohydrolase assay, TLC with UV detection of adenine (CgLOG (Cg2612) [2]) |
| --- | --- | --- | --- | --- |
| – | – | Nc1ncnc2c1ncn2[C@@H]1O[C@H](COP(=O)(O)O)[C@@H](O)[C@H]1O [AMP] | we observed that Cg2612 has phosphoribohydrolase activity | One exception is S19A mutant which shows higher activity than the wild-type |
| 2 | 2 | LOG from Corynebacterium glutamicum ATCC 13032 (gene product of Cg2612) (enzyme) | – | – |
